Like-named read-outs stand apart in the source and are kept apart here. Square brackets hold non-standard residues; d marks the D form. Peptide text beside a SMILES is read from it. Cit = NC(=O)NCCC[C@H](N)C(=O)O
Tests used:
[1] = target: T1, HLA-DRB1*01:01 (Homo sapiens, UniProt P01903+P01911, A100R/D57E/F55L/F60I/F76Y/I96L/L162R/M171V/P40L/Q125E/R42F/V115G/Y59C); experiment: HLA class II peptide binding, inhibition of radiolabeled peptide binding to purified MHC; details: for IC50: read-out: DRB1*01:01 binding capacity, Cit peptide (IC50 nM)
T1 construct: EBV transformed homozygous cell lines were used as sources of MHC molecules; endogenous in cells; host or cells: EBV transformed homozygous cell lines

[2] = target: T2, HLA-DRB1*04:01 (Homo sapiens, UniProt P01903+P01911, A100K/A169T/F76Y/I96L/K127E/L162R/M171V/N62H/P40V/Q125Y/R42H/S133A/S149N/S66Y/V115G/V209L/W38E); experiment: as above; details: for IC50: read-out: DRB1*04:01 binding capacity, Cit peptide (IC50 nM)
T2 construct: EBV transformed homozygous cell lines were used as sources of MHC molecules; endogenous in cells; host or cells: EBV transformed homozygous cell lines

[3] = citrullinated 15-mer peptide (X = citrulline), purified HLA-DRB1*01:01
[4] = citrullinated 15-mer peptide (X = citrulline), purified HLA-DRB1*04:01
[5] = citrullinated 15-mer (X), purified MHC, inhibition of radiolabeled peptide binding, dash = IC50 >40,000 nM
[6] = ratio of WT IC50 to Cit IC50, >1 = citrullination increases binding

Structure (SMILES)	IC50 [1, 3] [nM]	IC50 [2, 4] [nM]	IC50 [1, 5] [nM]	IC50 [2, 5] [nM]	DRB1*01:01 binding capacity, WT/cit ratio [1, 6]	DRB1*04:01 binding capacity, WT/cit ratio [2, 6]
CC[C@H](C)[C@H](NC(=O)[C@H](CCC(=O)O)NC(=O)[C@H](CC(=O)O)NC(=O)[C@H](CCC(N)=O)NC(=O)[C@H](CC(C)C)NC(=O)[C@H](CCCNC(N)=O)NC(=O)CNC(=O)[C@@H](NC(=O)[C@@H](N)[C@@H](C)O)[C@@H](C)CC)C(=O)N[C@@H](CCC(N)=O)C(=O)N[C@@H](CC(N)=O)C(=O)N[C@@H](CCSC)C(=O)N[C@@H](CCCCN)C(=O)N[C@@H](CCC(=O)O)C(=O)N[C@@H](CCC(=O)O)C(=O)O [TIGXLQDEIQNMKEE] (H-TIG[Cit]LQDEIQNMKEE-OH)	> 40000	31800				
CC[C@H](C)[C@H](NC(=O)[C@@H](NC(=O)[C@H](CCC(N)=O)NC(=O)CNC(=O)[C@H](CC(=O)O)NC(=O)[C@H](CCCNC(N)=O)NC(=O)[C@@H](NC(=O)[C@H](CCC(=O)O)NC(=O)[C@@H](NC(=O)[C@@H](NC(=O)[C@H](CCCCN)NC(=O)[C@@H](NC(=O)[C@H](CC(C)C)NC(=O)[C@H](CC(C)C)NC(=O)[C@@H](N)[C@@H](C)O)[C@@H](C)CC)[C@@H](C)O)C(C)C)[C@@H](C)O)C(C)C)C(=O)O [TLLIKTVETXDGQVI] (H-TLLIKTVET[Cit]DGQVI-OH)	2120	2260				
CC(C)C[C@H](NC(=O)[C@H](CCC(=O)O)NC(=O)[C@H](CCC(N)=O)NC(=O)[C@H](CC(C)C)NC(=O)[C@H](CCC(=O)O)NC(=O)[C@@H](NC(=O)[C@H](CCCCN)NC(=O)[C@H](CCC(=O)O)NC(=O)[C@H](CC(N)=O)NC(=O)[C@@H](N)[C@@H](C)O)C(C)C)C(=O)N[C@@H](CC(N)=O)C(=O)N[C@@H](CC(=O)O)C(=O)N[C@@H](CCCNC(N)=O)C(=O)N[C@@H](Cc1ccccc1)C(=O)N[C@@H](C)C(=O)O [TNEKVELQELNDXFA] (H-TNEKVELQELND[Cit]FA-OH)			5570	> 40000		
CSCC[C@H](NC(=O)[C@H](CCC(=O)O)NC(=O)[C@H](CCCNC(N)=O)NC(=O)[C@H](CCSC)NC(=O)[C@H](CCC(N)=O)NC(=O)[C@H](CCCNC(=N)N)NC(=O)[C@H](CCC(=O)O)NC(=O)[C@H](CC(C)C)NC(=O)[C@H](CO)NC(=O)[C@H](CCC(=O)O)NC(=O)[C@H](CC(N)=O)NC(=O)[C@@H](N)[C@@H](C)O)C(=O)N[C@@H](CCC(=O)O)C(=O)N[C@@H](CCC(=O)O)C(=O)N[C@@H](CC(N)=O)C(=O)O [TNESLERQMXEMEEN] (H-TNESLERQM[Cit]EMEEN-OH)	29700	> 40000				
CSCC[C@H](NC(=O)[C@H](CCC(=O)O)NC(=O)[C@H](CCCNC(=N)N)NC(=O)[C@H](CCSC)NC(=O)[C@H](CCC(N)=O)NC(=O)[C@H](CCCNC(N)=O)NC(=O)[C@H](CCC(=O)O)NC(=O)[C@H](CC(C)C)NC(=O)[C@H](CO)NC(=O)[C@H](CCC(=O)O)NC(=O)[C@H](CC(N)=O)NC(=O)[C@@H](N)[C@@H](C)O)C(=O)N[C@@H](CCC(=O)O)C(=O)N[C@@H](CCC(=O)O)C(=O)N[C@@H](CC(N)=O)C(=O)O [TNESLEXQMREMEEN] (H-TNESLE[Cit]QMREMEEN-OH; N-terminus and C-terminus assumed)	> 40000	> 40000			0.318	1.0
CC(C)C[C@H](NC(=O)[C@H](CC(N)=O)NC(=O)[C@@H](N)[C@@H](C)O)C(=O)N[C@@H](CC(=O)O)C(=O)N[C@@H](CO)C(=O)N[C@@H](CC(C)C)C(=O)N1CCC[C@H]1C(=O)N[C@@H](CC(C)C)C(=O)N[C@H](C(=O)N[C@@H](CC(=O)O)C(=O)N[C@H](C(=O)N[C@@H](Cc1c[nH]cn1)C(=O)N[C@@H](CO)C(=O)N[C@@H](CCCCN)C(=O)N[C@@H](CCCNC(N)=O)C(=O)O)[C@@H](C)O)C(C)C [TNLDSLPLVDTHSKX] (H-TNLDSLPLVDTHSK[Cit]-OH)	772	> 40000				
CC[C@H](C)[C@H](NC(=O)[C@@H](NC(=O)[C@H](CCC(N)=O)NC(=O)CNC(=O)[C@H](CC(=O)O)NC(=O)[C@H](CCCNC(N)=O)NC(=O)[C@@H](NC(=O)[C@H](CCC(=O)O)NC(=O)[C@@H](NC(=O)[C@@H](N)[C@@H](C)O)C(C)C)[C@@H](C)O)C(C)C)C(=O)N[C@@H](CC(N)=O)C(=O)N[C@@H](CCC(=O)O)C(=O)N[C@H](C(=O)N[C@@H](CO)C(=O)N[C@@H](CCC(N)=O)C(=O)O)[C@@H](C)O [TVETXDGQVINETSQ] (H-TVET[Cit]DGQVINETSQ-OH)	7860	14300				
CC(C)C[C@H](NC(=O)[C@H](CCC(N)=O)NC(=O)[C@H](CC(=O)O)NC(=O)[C@@H](N)C(C)C)C(=O)N[C@H](C(=O)N[C@@H](CC(N)=O)C(=O)N[C@@H](CC(=O)O)C(=O)N[C@@H](CCCCN)C(=O)N[C@@H](C)C(=O)N[C@@H](CCCNC(=N)N)C(=O)N[C@H](C(=O)N[C@@H](CCC(=O)O)C(=O)N[C@H](C(=O)N[C@@H](CCC(=O)O)C(=O)N[C@@H](CCCNC(N)=O)C(=O)O)C(C)C)C(C)C)[C@@H](C)O [VDQLTNDKARVEVEX] (H-VDQLTNDKARVEVE[Cit]-OH)			7420	> 40000		
CC(C)C[C@H](NC(=O)[C@H](CCC(N)=O)NC(=O)[C@H](CC(=O)O)NC(=O)[C@@H](N)C(C)C)C(=O)N[C@H](C(=O)N[C@@H](CC(N)=O)C(=O)N[C@@H](CC(=O)O)C(=O)N[C@@H](CCCCN)C(=O)N[C@@H](C)C(=O)N[C@@H](CCCNC(N)=O)C(=O)N[C@H](C(=O)N[C@@H](CCC(=O)O)C(=O)N[C@H](C(=O)N[C@@H](CCC(=O)O)C(=O)N[C@@H](CCCNC(=N)N)C(=O)O)C(C)C)C(C)C)[C@@H](C)O [VDQLTNDKAXVEVER] (H-VDQLTNDKA[Cit]VEVER-OH)			20400	> 40000		
CC[C@H](C)[C@H](NC(=O)[C@H](CC(=O)O)NC(=O)[C@H](CCC(=O)O)NC(=O)[C@H](C)NC(=O)[C@H](CC(C)C)NC(=O)[C@H](CC(N)=O)NC(=O)[C@H](CC(=O)O)NC(=O)[C@H](CCCNC(=N)N)NC(=O)[C@H](CCC(=O)O)NC(=O)[C@@H](NC(=O)[C@H](CCC(=O)O)NC(=O)[C@@H](N)C(C)C)C(C)C)C(=O)N[C@@H](CCSC)C(=O)N[C@@H](CCCNC(N)=O)C(=O)N[C@@H](CC(C)C)C(=O)O [VEVERDNLAEDIMXL] (H-VEVERDNLAEDIM[Cit]L-OH)			19600	17100		
CC[C@H](C)[C@H](NC(=O)[C@H](CC(=O)O)NC(=O)[C@H](CCC(=O)O)NC(=O)[C@H](C)NC(=O)[C@H](CC(C)C)NC(=O)[C@H](CC(N)=O)NC(=O)[C@H](CC(=O)O)NC(=O)[C@H](CCCNC(N)=O)NC(=O)[C@H](CCC(=O)O)NC(=O)[C@@H](NC(=O)[C@H](CCC(=O)O)NC(=O)[C@@H](N)C(C)C)C(C)C)C(=O)N[C@@H](CCSC)C(=O)N[C@@H](CCCNC(=N)N)C(=O)N[C@@H](CC(C)C)C(=O)O [VEVEXDNLAEDIMRL] (H-VEVE[Cit]DNLAEDIMRL-OH)			27100	16300		
CC(C)C[C@H](NC(=O)[C@H](CC(C)C)NC(=O)[C@@H](NC(=O)[C@H](CC(C)C)NC(=O)[C@H](CC(C)C)NC(=O)[C@@H](N)C(C)C)[C@@H](C)O)C(=O)N[C@H](C(=O)N[C@@H](C)C(=O)N[C@@H](C)C(=O)N[C@H](C(=O)N[C@@H](CC(C)C)C(=O)N[C@@H](CCCNC(N)=O)C(=O)N[C@@H](CS)C(=O)N[C@@H](CCC(N)=O)C(=O)NCC(=O)O)C(C)C)C(C)C [VLLTLLVAAVLXCQG] (H-VLLTLLVAAVL[Cit]CQG-OH)	29	> 40000				

Reference: PMC5421785, “Citrullination only infrequently impacts peptide binding to HLA class II MHC” (PLoS ONE, 2017)
